Assay results reported in patent US9096565B2, “Inhibitors of histone deacetylase” (MethylGene Inc., priority 2007, dated 2015).

What follows are compounds tested against one or more of HDAC-4, HDAC-5, HDAC-6, HDAC-7, HDAC-8, HDAC-9, HDAC-10 and HDAC-11 (assay: Inhibition of histone deacetylase enzymatic activity (summary statement over isoforms)). Conditions: Table 3, selected examples; HDAC isoform not given.
Format: biochemical
In short: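 HDAC enzyme mix with compound was preincubated 5 min at room temperature. Reaction was started at 37 °C with Boc-Lys(trifluoroacetyl)-AMC substrate and run 20-30 min. It was stopped with trypsin (1 mg/mL) plus a known HDAC inhibitor to release the fluorogenic AMC.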
`O=C(NO)C(c1ccc(N2CCOCC2)cc1)c1cccc(F)c1` (stereo not shown) [Compound 5-118, 2-(3-fluorophenyl)-N-hydroxy-2-(4-morpholinophenyl)acetamide] was tested, and the IC50 was < 1000 nM.
Work on `O=C(NO)C1(c2ccc(F)cc2)CCCCC1` [Compound 5-119, 1-(4-fluorophenyl)-N-hydroxycyclohexanecarboxamide] yielded an IC50 of 1000 to 15000 nM.
In the case of `O=C(NO)C1(c2ccc(F)cc2)CCCC1` [Compound 5-120, 1-(4-fluorophenyl)-N-hydroxycyclopentanecarboxamide], the IC50 is reported as 1000 to 15000 nM.
`CC(C)C(=O)ONC(=O)C(c1ccccc1)c1ccc(N2CCOCC2)cc1` (stereo not shown) [Compound 5-121, N-(isobutyryloxy)-2-(4-morpholinophenyl)-2-phenylacetamide] showed an IC50 of 1000 to 15000 nM.
With `O=C(NO)C(c1ccc(N2CCOCC2)cc1)c1cccc2ccccc12` (stereo not shown) [Compound 5-122, N-hydroxy-2-(4-morpholinophenyl)-2-(naphthalen-1-yl)acetamide] the IC50 was < 1000 nM.
`O=C(NO)C(c1ccccc1)c1ccc(OC2CCN(Cc3ccccc3)CC2)cc1` (stereo not shown) [Compound 5-123, 2-(4-(1-benzylpiperidin-4-yloxy)phenyl)-N-hydroxy-2-phenylacetamide] was tested, and the IC50 was < 1000 nM.
In the case of `Cc1cccc(C(C(=O)NO)c2ccc(N3CCOCC3)cc2)c1` (stereo not shown) [Compound 5-125, N-hydroxy-2-(4-morpholinophenyl)-2-m-tolylacetamide], the IC50 is reported as < 1000 nM.
With `O=C(NO)C(c1ccccc1)C1CCN(c2ncccn2)CC1` (stereo not shown) [Compound 5-126, N-hydroxy-2-phenyl-2-(1-(pyrimidin-2-yl)piperidin-4-yl)acetamide] the IC50 was 1000 to 15000 nM.
`O=C(NO)C(c1ccccc1)C1CCN(C(=O)c2ccccc2)CC1` (stereo not shown) [Compound 5-127, 2-(1-benzoylpiperidin-4-yl)-N-hydroxy-2-phenylacetamide] was tested, and the IC50 was 1000 to 15000 nM.
`CCCC(=O)ONC(=O)C(c1ccccc1)c1ccc(N2CCOCC2)cc1` (stereo not shown) [Compound 5-128, N-(butyryloxy)-2-(4-morpholinophenyl)-2-phenylacetamide] gave an IC50 of 1000 to 15000 nM.
In the case of `COc1ccccc1C(C(=O)NO)c1ccc(N2CCOCC2)cc1` (stereo not shown) [Compound 5-129, N-hydroxy-2-(2-methoxyphenyl)-2-(4-morpholinophenyl)acetamide], the IC50 is reported as 1000 to 15000 nM.
For `O=C(NO)C(c1ccccc1)c1ccc(OC2CCN(CC3CC3)CC2)cc1` (stereo not shown) [Compound 5-130, 2-(4-(1-(cyclopropylmethyl)piperidin-4-yloxy)phenyl)-N-hydroxy-2-phenylacetamide], the IC50 was < 1000 nM.
`Cc1[nH]c2ccccc2c1CN1CCC(Oc2ccc(C(C(=O)NO)c3ccccc3)cc2)CC1` (stereo not shown) [Compound 5-132, N-hydroxy-2-(4-(1-((2-methyl-1H-indol-3-yl)methyl)piperidin-4-yloxy)phenyl)-2-phenylacetamide] was tested, and the IC50 was < 1000 nM.
In the case of `O=C(NO)C(c1ccccc1)c1ccc(N2C[C@@H]3C[C@]3(c3ccc(Cl)c(Cl)c3)C2)cc1` (stereo partly drawn) [Compound 6-16, 2-(4-((1S,5R)-1-(3,4-dichlorophenyl)-3-azabicyclo[3.1.0]hexan-3-yl)phenyl)-N-hydroxy-2-phenylacetamide], the IC50 is reported as < 1000 nM.
For `O=C(NO)C(c1ccc(N2CCOCC2)cc1)c1ccccc1F` (stereo not shown) [Compound 6-17, 2-(2-fluorophenyl)-N-hydroxy-2-(4-morpholinophenyl)acetamide], the IC50 was < 1000 nM.
Work on `Cc1ccc(S(=O)(=O)N2CCN(C3(C(=O)NO)CCc4ccccc43)CC2)cc1` (stereo not shown) [Compound 6-18, N-hydroxy-1-(4-(p-tolylsulfonyl)piperazin-1-yl)-2,3-dihydro-1H-indene-1-carboxamide] yielded an IC50 of 1000 to 15000 nM.
`Cc1ccccc1C(C(=O)NO)c1ccc(N2CCOCC2)cc1` (stereo not shown) [Compound 6-19, N-hydroxy-2-(4-morpholionphenyl)-2-o-tolylacetamide] was tested, and the IC50 was < 1000 nM.
`O=C(NO)C(c1ccc(N2CCOCC2)cc1)c1cccc(OC(F)(F)F)c1` (stereo not shown) [Compound 6-20, N-hydroxy-2-(4-morpholinophenyl)-2-(3-(trifluoromethoxy)phenyl)acetamide] showed an IC50 of 1000 to 15000 nM.
`O=C(NO)C(c1ccc(N2CCOCC2)cc1)c1cccc(C(F)(F)F)c1` (stereo not shown) [Compound 6-21, N-hydroxy-2-(4-morpholinophenyl)-2-(3-(trifluoromethyl)phenyl)acetamide] showed an IC50 of 1000 to 15000 nM.
